From patent US20060116390A1, “Hepatitis c virus inhibitors” (priority 2003, published 2006)
pIC50: −log10 of the molar value. Read-outs that look alike come from different tables or passages of the source.

System: HCV proteins in Rep5.1 cells (replicon cell line)
Experiment: Inhibitory activity of HCV: cell-based ELISA in replicon cell line Rep5.1 (decrease of HCV proteins)
Design: species or system hepatitis C virus
Conditions: Hepatitis C virus, 72 h, Rep5.1 cells, 72 hours with drug
Procedure: In order to, screen and evaluate the anti-HCV therapeutic agents in cell level, the following experiments are carried out using a replicon cell line, Rep5.1 [Lohmann, et al., Replication of subgenomic hepatitis C virus RNAs in a hepatoma cell line. Science 285:110-113 (1999)].
Rep5.1 cells, the replicon cell line, are cultured in DMEM-10 containing 500 μg/ml of G418. The Rep5.1 cells in log phase are suspended by trypsin treatment, and 5000 cells are distributed to each well of a 96-well plate. After 4 hours when the cells are attached to the plate, the serially diluted drug is added to each well. After 48 hours, a part of the treated cells are observed by microscope, and MTT assay is carried out to evaluate the drug toxicity. The cytotoxicity is estimated in percentage based on the control containing no drug. After 72 hours, the remaining cells are fixed by methanol/acetone (50/50, v/v), and the decrease of HCV proteins is measured by using HCV antibody. The extent of decrease is estimated in percentage based on the control containing no drug, and the concentration of drug at which 50% of proteins is decreased is determined to be IC50. The compounds showing activity via this procedure are validated by Western blotting. In order to find out whether the decrease of HCV protein is related to the decrease of replicon RNA, Rep5.1 cell is treated with some selected drugs for 72 hours, RNA is purified, dot blotted, and hybridized with isotope labelled nucleic acid to determine the amounts of actin mRNA and replicon RNA, and finally the amount of RNA is compared.
Plasma samples from 300 persons positive to the hepatitis C antibody test were screened by antibody diagnosis kit produced by LG life Sciences Ltd. (LG HCD3.0 TMB) to select 40 plasma samples having high titer. Replicon cell line and Huh-7 cell line each were cultured in a 96-well cell culture plate, fixed by methanol/acetone (1:1) mixture, and blocked by 3% skimmed milk. The 40 plasma sanples selected above were 100-fold diluted and aided thereto, and the bound antibodies were probed by anti-Human goat antibody (Sigma) to which Horse Radish Peroxidase is attached. As a result, 12 plasma samples having low specificity to Huh-7 cell line, but high specificity to replicon cell line were obtained. These plasma samples were used in the following cell-based ELISA.
Rep5.1 cells were cultured in DMEM-10 containing 500 μg/ml of G418. The Rep5.1 cells in log phase were suspended by trypsin treatment, and 5000 cells were distributed to each well of a 96-well pate. After 4 hours for which the cells were attached to the plate, the serially diluted drug was added to each well. After 72 hours, the cells were fixed by methanol/acetone (50/50, v/v), and the decrease of HCV proteins was measured by using HCV antibody obtained as above. The extent of decrease was estimated in percentage based on the control containing no drug, and the concentration of drug at which 50% of proteins was decreased was determined to be IC50.

[1] = concentration at which 50% of HCV proteins was decreased, Table 2, read-out: IC50
[2] = decrease of HCV proteins measured by HCV antibody, Table 1, read-out: Level (IC50 values classified)

| SMILES | pIC50 [1] | pIC50 [2] |
| --- | --- | --- |
| CC1=C(C(=O)OCc2cc(Cl)cc(Cl)c2)CNC(=S)N1 [Compound 131, 6-methyl-2-thioxo-1,2,3,4-tetrahydro-pyrimidine-5-carboxylic acid 3,5-dichloro-benzyl ester] | > 6.40 | > 6.00 |
| CC1=C(C(=O)OCCc2ccsc2)C(C(F)(F)F)NC(=S)N1 (centres unmarked) [8′, 6-methyl-2-thioxo-4-trifluoromethyl-1,2,3,4-tetrahydro-pyrimidine-5-carboxylic acid 2-thiophen-3-yl-ethyl ester] | 4.68 | < 4.70 |
| CC1=C(C(=O)OCCCc2ccccc2)C(CF)NC(=S)N1 (centres unmarked) [31′, 4-fluoromethyl-6-methyl-2-thioxo-1,2,3,4-tetrahydro-pyrimidine-5-carboxylic acid 3-phenyl-propyl ester] | 6.40 | > 6.00 |
| CC1=C(C(=O)OCc2cccc3ccccc23)CNC(=S)N1 [Compound 10, 6-methyl-2-thioxo-1,2,3,4-tetrahydro-pyrimidine-5-carboxylic acid naphthalen-1-ylmethyl ester] | 6.00 | > 6.00 |
| CC1=C(C(=O)OCc2ccccc2)CNC(=S)N1 [Compound 6, 6-methyl-2-thioxo-1,2,3,4-tetrahydro-pyrimidine-5-carboxylic acid benzyl ester] | 6.00 | > 6.00 |
| CC1=C(C(=O)OCCc2c(F)cccc2Cl)C(CO)NC(=S)N1 (centres unmarked) [59″, 4-hydroxymethyl-6-methyl-2-thioxo-1,2,3,4-tetrahydro-pyrimidine-5-carboxylic acid 2-(2-chloro-6-fluoro-phenyl)-ethyl ester] | 5.60 | 5.00 to 6.00 |
| CC1=C(C(=O)OCCc2ccsc2)C(COCc2ccccc2)NC(=S)N1 (centres unmarked) [Compound 272, 4-benzyloxymethyl-6-methyl-2-thioxo-1,2,3,4-tetrahydro-pyrimidine-5-carboxylic acid 2-thiophen-3-yl-ethyl ester] | 4.47 | < 4.70 |
| CC1=C(C(=O)OCc2ccc3nnn(C)c3c2)CNC(=S)N1 [Compound 242, 6-methyl-2-thioxo-1,2,3,4-tetrahydro-pyrimidine-5-carboxylic acid 3-methyl-3H-benzotriazol-5-ylmethyl ester] | 4.20 | < 4.70 |
| CC1=C(C(=O)OCCc2c(F)cccc2F)C(CO)NC(=S)N1 (centres unmarked) [39″, 4-hydroxymethyl-6-methyl-2-thioxo-1,2,3,4-tetrahydro-pyrimidine-5-carboxylic acid 2-(2,6-difluoro-phenyl)-ethyl ester] | 4.70 | 4.70 to 5.00 |
| CC1=C(C(=O)OCc2cc3ccccc3s2)CNC(=S)N1 [Compound 219, 6-methyl-2-thioxo-1,2,3,4-tetrahydro-pyrimidine-5-carboxylic acid benzo[b]thiophen-2-ylmethyl ester] | > 6.40 | > 6.00 |
| CC1=C(C(=O)OCCOc2ccccc2)CNC(=S)N1 [Compound 163, 6-methyl-2-thioxo-1,2,3,4-tetrahydro-pyrimidine-5-carboxylic acid 2-phenoxy-ethyl ester] | 5.60 | 5.00 to 6.00 |
| CCc1ccc(CCCOC(=O)C2=C(C)NC(=S)NC2CO)o1 (centres unmarked) [19″, 4-hydroxymethyl-6-methyl-2-thioxo-1,2,3,4-tetrahydro-pyrimidine-5-carboxylic acid 3-(5-ethyl-furan-2-yl)-propyl ester] | 5.85 | 5.00 to 6.00 |
| CC1=C(C(=O)OCCc2cc3c(C)snc3s2)CNC(=S)N1 [5′, 6-methyl-2-thioxo-1,2,3,4-tetrahydro-pyrimidine-5-carboxylic acid 2-(3-methyl-thieno[2,3-c]isothiazol-5-yl)-ethyl ester] | 5.60 | 5.00 to 6.00 |
| CC(=O)Oc1ccccc1CCC(=O)OCC1NC(=S)NC(C)=C1C(=O)OCCc1cccc([N+](=O)[O-])c1 (centres unmarked) [81″, 4-[3-(2-acetoxy-phenyl)-propionyloxymethyl]-6-methyl-2-thioxo-1,2,3,4-tetrahydro-pyrimidine-5-carboxylic acid 2-(3-nitro-phenyl)-ethyl ester] | 5.19 | 5.00 to 6.00 |
| CC1=C(C(=O)OCc2cccc(SC(F)(F)F)c2)CNC(=S)N1 [Compound 164, 6-methyl-2-thioxo-1,2,3,4-tetrahydro-pyrimidine-5-carboxylic acid 3-trifluoromethylsulfanyl-benzyl ester] | > 6.40 | > 6.00 |
| COc1cccc(COC(=O)C2=C(C)NC(=S)NC2)c1 [Compound 120, 6-methyl-2-thioxo-1,2,3,4-tetrahydro-pyrimidine-5-carboxylic acid 3-methoxy-benzyl ester] | 6.00 | 5.00 to 6.00 |
| COc1ccc(C2(COC(=O)C3=C(C)NC(=S)NC3CF)CCCC2)cc1 (centres unmarked) [64′, 4-fluoromethyl-6-methyl-2-thioxo-1,2,3,4-tetrahydro-pyrimidine-5-carboxylic acid 1-(4-methoxy-phenyl)-cyclopentylmethyl ester] | 5.52 | 5.00 to 6.00 |
| CCOc1ccccc1COC(=O)C1=C(C)NC(=S)NC1CF (centres unmarked) [Compound 263, 4-fluoromethyl-6-methyl-2-thioxo-1,2,3,4-tetrahydro-pyrimidine-5-carboxylic acid 2-ethoxy-benzyl ester] | 5.77 | > 6.00 |
| CC(=O)OCC1NC(=S)NC(C)=C1C(=O)OCCCc1cccs1 (centres unmarked) [23″, 4-acetoxymethyl-6-methyl-2-thioxo-1,2,3,4-tetrahydro-pyrimidine-5-carboxylic acid 3-thiophen-2-yl-propyl ester] | 5.05 | 5.00 to 6.00 |
| CC1=C(C(=O)OCc2ccc3c(c2)OCO3)CNC(=S)N1 [Compound 9, 6-methyl-2-thioxo-1,2,3,4-tetrahydro-pyrimidine-5-carboxylic acid benzo[1,3]dioxol-5-ylmethyl ester] | 5.40 | 5.00 to 6.00 |
| CC1=C(C(=O)OCCc2ccc(C)s2)CNC(=S)N1 [Compound 258, 6-methyl-2-thioxo-1,2,3,4-tetrahydro-pyrimidine-5-carboxylic acid 2-(5-methyl-thiophen-2-yl)-ethyl ester] | > 6.40 | > 6.00 |
| CC1=C(C(=O)OCCCc2ccccc2)C(CO)NC(=S)N1 (centres unmarked) [14″, 4-hydroxymethyl-6-methyl-2-thioxo-1,2,3,4-tetrahydro-pyrimidine-5-carboxylic acid 3-phenyl-propyl ester] | 5.59 | 5.00 to 6.00 |
| CC1=C(C(=O)OCCOC2CCc3ccccc32)CNC(=S)N1 (centres unmarked) [Compound 125, 6-methyl-2-thioxo-1,2,3,4-tetrahydro-pyrimidine-5-carboxylic acid 2-(indan-1-yloxy)-ethyl ester] | 5.70 | 5.00 to 6.00 |
| CCOc1ccccc1CCOC(=O)C1=C(C)NC(=S)NC1CO (centres unmarked) [11″, 4-hydroxymethyl-6-methyl-2-thioxo-1,2,3,4-tetrahydro-pyrimidine-5-carboxylic acid 2-(2-ethoxy-phenyl)-ethyl ester] | 5.22 | 5.00 to 6.00 |
| CC1=C(C(=O)OCC2CC=CCC2)C(CF)NC(=S)N1 (centres unmarked) [44′, 4-fluoromethyl-6-methyl-2-thioxo-1,2,3,4-tetrahydro-pyrimidine-5-carboxylic acid cyclohex-3-enylmethyl ester] | 5.55 | 5.00 to 6.00 |
| COc1ccc(COc2ccc(COC(=O)C3=C(C)NC(=S)NC3)cc2)cc1 [Compound 227, 6-methyl-2-thioxo-1,2,3,4-tetrahydro-pyrimidine-5-carboxylic acid 4-(4-methoxy-benzyloxy)-benzyl ester] | > 6.40 | > 6.00 |
| CC1=C(C(=O)OCCCc2cccs2)C(CO)NC(=S)N1 (centres unmarked) [4″, 4-hydroxymethyl-6-methyl-2-thioxo-1,2,3,4-tetrahydro-pyrimidine-5-carboxylic acid 3-thiophen-2-yl-propyl ester] | 5.60 | 5.00 to 6.00 |
| COc1ccc(COC(=O)C2=C(C)NC(=S)NC2)cc1C [Compound 176, 6-methyl-2-thioxo-1,2,3,4-tetrahydro-pyrimidine-5-carboxylic acid 4-methoxy-3-methyl-benzyl ester] | 5.57 | 5.00 to 6.00 |
